Values after ≈ are worked out from the molar mass of the structure shown.
What was measured:
S. aureus = assay: microbe, parasite or virus in culture; parameters: antibacterial MIC determination on wild-type strains; settings: Staphylococcus aureus, read-out: MIC S. aureus
[1] = biological target: T1, undecaprenyl pyrophosphate synthase (UppS) (Escherichia coli, UniProt P60472); assay: biochemical; parameters: radiolabeled [14C]-IPP UppS assay, TLC quantification of [14C]-UPP; residual activity or IC50; settings: read-out: % of control remaining
T1 construct: gene ispU; N-terminal His6-tagged UppSEc
T1 sequence (P60472 1-253): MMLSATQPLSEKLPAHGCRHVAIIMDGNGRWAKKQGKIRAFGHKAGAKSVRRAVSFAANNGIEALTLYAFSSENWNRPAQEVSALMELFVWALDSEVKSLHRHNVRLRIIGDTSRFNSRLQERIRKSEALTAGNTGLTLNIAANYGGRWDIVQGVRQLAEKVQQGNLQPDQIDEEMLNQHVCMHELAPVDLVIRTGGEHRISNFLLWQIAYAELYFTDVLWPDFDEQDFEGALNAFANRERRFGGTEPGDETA
Procedure: The UppS enzymatic activity was determined by using a kinetics-based assay utilizing a radiolabeled substrate. The assay revolves on the measuring of UPP formation in the reaction mixture in a final volume of 40 μL. Stock solutions of all compounds (2 mM) were prepared in DMSO and the final concentration of DMSO in the assay was 5% (v/v). The enzyme was diluted in buffer A to appropriate concentration so that the consumption of the substrate in the assay is no higher than 30%. The reaction mixture consisted of 20 μL of 100 mM HEPES, pH 7.5, 50 mM KCl, 0.5 mM MgCl2, 1.5 μM FPP, 12 μM [^14C]-IPP ([^14C]-IPP; 289 Bq), 2 μL DMSO with or without the inhibitor and 18 μL of optimal enzyme solution. […] Reaction mixture was lyophilized and resuspended in 10 μL of purified water. The radiolabeled substrate, [^14C]-IPP, and the product, [^14C]UPP, were separated on a Silica gel 60 TLC plate using 1-propranol / ammonium hydroxide / water in ratio of 6/3/1 (v/v/v) as a mobile phase (Rf([^14C]–IPP) = 0.21, Rf[^14C]UPP = 0.56), and quantified with a radioactivity scanner (Rita Star, Raytest Isotopenmessgeräte GmbH, Straubenhardt, Germany). Residual activities (RAs) were calculated with respect to a control reaction without the tested compounds and with 5% DMSO. All the experiments were run in duplicate with standard deviations within ± 10%. The IC50 values represented the concentrations for which the RA was 50% and were determined by measuring the RAs at seven different compound concentrations. The 34 purchased compounds were tested for their inhibitory potencies against E. coli UppS using a radioactivity-based assay. In these test conditions, the [^14C]-UPP formation is observed thanks to a radiolabeled substrate ([^14C]-IPP) and quantified with a radioactivity scanner. The results are presented as RAs of UppS in the presence of 100 μM of each compound (Supplementary Table S1). […] Sodium risedronate was used as a positive control to enable the comparison of the purchased compounds to a known inhibitor and to confirm the results of the UppS inhibition assay. […] All three inhibitors are anthranilic acid derivatives with a larger hydrophobic moiety attached to the amide group via different linkers, 2-cyanoacryloyl for compounds 1 and 2 and 2-thioacetyl for compound 3.

E. coli = assay: microbe, parasite or virus in culture; parameters: antibacterial MIC determination on wild-type strains; settings: Escherichia coli, read-out: MIC E. coli
Procedure: E. coli AcrAB-TolC is a tripartite multidrug efflux pump system that expels compounds form the cell and this represents one of the possible mechanisms of bacterial defence against xenobiotics ([Kim et al., 2015]). […] On the other hand, compound 2 inhibited bacterial growth in both E. coli BW25113 ΔtolC strains with or without permeable membrane (MIC = 0.5 μg/mL). The antibacterial activity in the efflux pump-deficient E. coli BW25113 ΔtolC strain is independent from the presence of polymyxine B. Therefore, it can be postulated on the basis of the evaluation of compound 2, that transport across E. coli cell membrane is possible. This compound therefore represents an interesting starting point for further development, for example computational searches of similar compounds and analog synthesis.

[2] = biological target: T2, undecaprenyl pyrophosphate synthase (UppS) (Escherichia coli, UniProt P60472); assay: radiolabeled […]-IPP assay, TLC quantification of […]-UPP, IC50 from seven concentrations; type: biochemical
T2 construct: gene ispU; N-terminal His6-tagged UppSEc

O=C(O)c1ccccc1C(=O)Nc1ccc(C(=O)N(c2ccccc2)c2cccc3ccccc23)cc1 [S11]
MIC (S. aureus): > 128 µg/mL
remaining activity at 100 µM [1]: 60%
MIC (E. coli): > 128 µg/mL

Cc1ccc(-n2c(SCC(=O)Nc3ccccc3C(=O)O)nnc2-c2cc3ccccc3o2)cc1 [S18]
MIC (S. aureus): > 128 µg/mL
remaining activity at 100 µM [1]: 122%
MIC (E. coli): > 128 µg/mL

COC(=O)C(NC(=O)c1ccccc1C(=O)O)c1ccc(OCc2ccccc2)c(OC)c1 (stereo not drawn) [S33]
MIC (S. aureus): > 128 µg/mL
remaining activity at 100 µM [1]: 65%
MIC (E. coli): > 128 µg/mL

CCCc1ccc(S(=O)(=O)Nc2ccc(N3CCN(C4CCCCC4)CC3)cc2C(=O)O)cc1 [S28]
MIC (S. aureus): > 128 µg/mL
remaining activity at 100 µM [1]: 113%
MIC (E. coli): > 128 µg/mL

Cc1cccc(N2CCN(c3ccc(NC(=O)C(C)C)c(C(=O)O)c3)CC2)c1 [S31]
MIC (S. aureus): > 128 µg/mL
remaining activity at 100 µM [1]: 125%
MIC (E. coli): > 128 µg/mL

Cc1cc(C)n(CCCNc2ccc(C(=O)c3ccccc3C(=O)O)cc2[N+](=O)[O-])n1 [S13]
MIC (S. aureus): > 128 µg/mL
remaining activity at 100 µM [1]: 92%
MIC (E. coli): > 128 µg/mL

O=C(Cc1ccccc1C(=O)O)Nc1ccn(Cc2ccccc2Cl)n1 [S5]
MIC (S. aureus): > 128 µg/mL
remaining activity at 100 µM [1]: 115%
MIC (E. coli): > 128 µg/mL

O=C(Nc1ccccc1C(=O)O)c1cccc(NC(=O)C(c2ccccc2)c2ccccc2)c1 [S14]
MIC (S. aureus): 128 µg/mL (≈ 284 µM)
remaining activity at 100 µM [1]: 101%
MIC (E. coli): > 128 µg/mL

O=C(O)CCC(NC(=O)C(=Cc1cn(-c2ccccc2)nc1-c1cccnc1)NC(=O)c1ccccc1)C(=O)O (stereo not drawn) [S8]
MIC (S. aureus): > 128 µg/mL
remaining activity at 100 µM [1]: 92%
MIC (E. coli): > 128 µg/mL

O=C(O)C1CC=CCC1C(=O)Nc1ccccc1C(=O)N1CCN(c2ccc(F)cc2)CC1 (stereo not drawn) [S19]
MIC (S. aureus): > 128 µg/mL
remaining activity at 100 µM [1]: 99%
MIC (E. coli): > 128 µg/mL

N#C/C(=C\c1cn(Cc2cccc3ccccc23)c2ccccc12)C(=O)Nc1ccccc1C(=O)O [compound 1]
MIC (S. aureus): > 128 µg/mL
IC50 [2]: 45 µM
MIC (E. coli): > 128 µg/mL

O=C(O)c1ccccc1C(=O)NCCC(c1ccc(F)cc1)c1ccco1 (stereo not drawn) [S27]
MIC (S. aureus): > 128 µg/mL
remaining activity at 100 µM [1]: 99%
MIC (E. coli): > 128 µg/mL

O=C(O)c1cccc(C(=O)NCCc2nc3ccccc3n2C(F)F)c1 [S20]
MIC (S. aureus): > 128 µg/mL
remaining activity at 100 µM [1]: 168%
MIC (E. coli): > 128 µg/mL

O=C(NCCc1ccccc1)c1ccc(NC(=O)c2nccnc2C(=O)O)cc1 [S30]
MIC (S. aureus): > 128 µg/mL
remaining activity at 100 µM [1]: 122%
MIC (E. coli): > 128 µg/mL

Cc1cccc(C(=O)O)c1NC(=O)COc1ccc(Cl)cc1 [S32]
MIC (S. aureus): > 128 µg/mL
remaining activity at 100 µM [1]: 122%
MIC (E. coli): > 128 µg/mL

Cc1ccc(OCCNC(=O)C2CC=CCC2C(=O)O)cc1 (stereo not drawn) [S23]
MIC (S. aureus): > 128 µg/mL
remaining activity at 100 µM [1]: 117%
MIC (E. coli): > 128 µg/mL

O=C(CN1CCCC1C(=O)O)NCc1ccc(COc2ccccc2)cc1 (stereo not drawn) [S15]
MIC (S. aureus): > 128 µg/mL
remaining activity at 100 µM [1]: 124%
MIC (E. coli): > 128 µg/mL

Cc1sc(NC(=O)c2ccccc2C(=O)O)nc1-c1ccc(-c2ccccc2)cc1 [S12]
MIC (S. aureus): > 128 µg/mL
remaining activity at 100 µM [1]: 120%
MIC (E. coli): > 128 µg/mL

O=C(O)c1ccccc1C(=O)Nc1ccc(C(=O)N(c2ccccc2)c2ccc3ccccc3c2)cc1 [S2]
MIC (S. aureus): > 128 µg/mL
remaining activity at 100 µM [1]: 58%
MIC (E. coli): > 128 µg/mL

CCCCCCCCCCCCN(CP(=O)(O)O)CP(=O)(O)O [S34]
MIC (S. aureus): 128 µg/mL (≈ 343 µM)
remaining activity at 100 µM [1]: 147%
MIC (E. coli): > 128 µg/mL

O=C(Cn1cc(-c2ccc(Cl)cc2)ncc1=O)NC(C(=O)O)c1ccccc1 (stereo not drawn) [S29]
MIC (S. aureus): > 128 µg/mL
remaining activity at 100 µM [1]: 96%
MIC (E. coli): > 128 µg/mL

O=C(Nc1ccc(COCc2ccccc2)cc1)c1ccnc(C(=O)O)c1 [S22]
MIC (S. aureus): > 128 µg/mL
remaining activity at 100 µM [1]: 93%
MIC (E. coli): > 128 µg/mL

Cc1ccc(Nc2nccc(Nc3ccc(O)c(C(=O)O)c3)n2)c(C)c1 [S9]
MIC (S. aureus): > 128 µg/mL
remaining activity at 100 µM [1]: 72%
MIC (E. coli): > 128 µg/mL

COc1ccc(C(=O)Nc2ccc(N3CCN(c4ccccc4F)CC3)cc2C(=O)O)cc1 [S21]
MIC (S. aureus): > 128 µg/mL
remaining activity at 100 µM [1]: 74%
MIC (E. coli): > 128 µg/mL

O=C(COc1ccccc1)Nc1ccc(N2CCN(c3ccc(Cl)cc3)CC2)cc1C(=O)O [S25]
MIC (S. aureus): 64 µg/mL (≈ 137 µM)
remaining activity at 100 µM [1]: 121%
MIC (E. coli): > 128 µg/mL

CCOc1ccc(N(CC(=O)Nc2ccccc2C(=O)O)S(=O)(=O)c2ccc(Cl)cc2)cc1 [S26]
MIC (S. aureus): 128 µg/mL (≈ 262 µM)
remaining activity at 100 µM [1]: 102%
MIC (E. coli): > 128 µg/mL

O=C(O)C1CCCCC1C(=O)Nc1ccc(N2CCN(c3cccc(Cl)c3Cl)CC2)cc1 (stereo not drawn) [S3]
MIC (S. aureus): > 128 µg/mL
remaining activity at 100 µM [1]: 96%
MIC (E. coli): > 128 µg/mL

CC(=O)c1ccc(NC(=O)C(Sc2ccc(NC(=O)c3ccccc3C(=O)O)cc2)c2ccccc2)cc1 (stereo not drawn) [S4]
MIC (S. aureus): > 128 µg/mL
remaining activity at 100 µM [1]: 101%
MIC (E. coli): > 128 µg/mL

N#C/C(=C\c1cccc(OCc2ccc(F)cc2)c1)C(=O)Nc1ccccc1C(=O)O [compound 2]
MIC (S. aureus): > 128 µg/mL
IC50 [2]: 25 µM
MIC (E. coli): > 128 µg/mL

O=C(CSc1nnc(-c2cc3ccccc3o2)n1-c1ccccc1)Nc1ccccc1C(=O)O [compound 3]
MIC (S. aureus): > 128 µg/mL
IC50 [2]: 24 µM
MIC (E. coli): > 128 µg/mL

O=C(O)C1CCCCC1C(=O)Nc1ccc(N2CCN(Cc3ccccc3)CC2)cc1 (stereo not drawn) [S6]
MIC (S. aureus): > 128 µg/mL
remaining activity at 100 µM [1]: 53%
MIC (E. coli): > 128 µg/mL

CCCn1cc(NC(=O)CNS(=O)(=O)c2cccc3c(N(C)C)cccc23)c(C(=O)O)c1 [S7]
MIC (S. aureus): > 128 µg/mL
remaining activity at 100 µM [1]: 85%
MIC (E. coli): > 128 µg/mL

Cc1ccc(N2CCN(C(=O)c3ccccc3NC(=O)C3CC=CCC3C(=O)O)CC2)cc1 (stereo not drawn) [S16]
MIC (S. aureus): > 128 µg/mL
remaining activity at 100 µM [1]: 104%
MIC (E. coli): > 128 µg/mL

— article PMC6339874, “Anthranilic Acid Inhibitors of Undecaprenyl Pyrophosphate Synthase (UppS), an Essential Enzyme for Bacterial Cell Wall Biosynthesis” (Frontiers in Microbiology, 2019)
